Data on 14 compounds can be found in publication PMC7230731 (Marine Drugs, 2020).

Data set [1] relates to MCF-10A cells. Put plainly: SRB cytotoxicity assay, non-tumorigenic MCF-10A. Format: cell-based, human. Particulars: for Selectivity Index MCF-10A/MCF-7: IC50 MCF-10A / IC50 MCF-7; for IC50: non-tumorigenic human breast epithelial MCF-10A cells, SRB assay. An excerpt:
The two examined human breast cancer cell lines (MCF-7 and Breast MDA-MB-231), and non-tumorigenic human breast epithelial cell line (MCF-10A) have been obtained from the American Type Culture Collection (ATCC). Assessment of cytotoxicity for target indole derivatives has been performed following the SRB colorimetric assay procedures, as reported earlier.
1. Anti-proliferative action toward human breast cell lines
The two examined human breast cancer cell lines (MCF-7 and Breast MDA-MB-231), and non-tumorigenic human breast epithelial cell line (MCF-10A) have been obtained from American Type Culture Collection (ATCC). The cells were maintained in Dulbecco's modified Eagle's medium (DMEM) supplemented with 10% heat inactivated fetal calf serum (GIBCO), penicillin (100 U/ml) and streptomycin (100 µg/ml) at 37 °C in humidified atmosphere containing 5% CO2. Cells at a concentration of 0.50 x 106 were grown in a 25 cm2 flask in 5 ml of culture medium.
The anti-proliferative activity of the tested compounds was measured in vitro using the Sulfo-Rhodamine-B stain (SRB) assay. Briefly, Cells were inoculated in 96-well microtiter plate (5X104 cells/ well) for 24 h before treatment with the tested compounds to allow attachment of cell to the wall of the plate. Tested compounds were dissolved in DMSO at 1 mg/ml immediately before use and diluted to the appropriate volume just before addition to the cell culture. Different concentrations of tested compounds, doxorubicin and sorafenib were added to the cells (three wells were prepared for each individual dose). Cells were incubated with the compounds for 48 h at 37°C and in atmosphere of 5% CO2. After 48 h cells were fixed, washed, and stained for 30 min with 0.4% (w/v) SRB dissolved in 1% acetic acid. Unbound dye was removed by four washes with 1% acetic acid, and attached stain was recovered with Tris-EDTA buffer. Color intensity was measured in an ELISA reader. The relation between percent of surviving fraction and drug concentration is plotted to get the survival curve for each cell line. […]
On the technique in general: The SRB assay estimates cell density from bound dye.

Data set [2] deals with T1, CDK2 (Homo sapiens, UniProt P24941).
T1 construct: purchased Reaction Biology Corp. (Kinase HotSpot service)
Put plainly: CDK2 kinase inhibition (Reaction Biology HotSpot). Format: biochemical. The settings on record: single dose of 10 µM; for % Enzyme Inhibitory Activity: 10 µM; for inhibition at 10 µM: read-out: % Enzyme Inhibitory Activity. The method, then:
The in vitro CDK2 kinase inhibition assay was carried out by Reaction Biology Corp. (Reaction Biology Corp., Chester, PA, USA) Kinase HotSpotSM service (http://www.reactionbiology.com).
5. CDK2 kinase inhibitory activity
Reaction Biology Corp. Kinase HotSpotSM service
(http://www.reactionbiology.com) was used for screening of tested compounds. CDK2 Kinase inhibitory activity was assessed by the HotSpot assay platform, which contained specific kinase/substrate pairs along with required cofactors. Base reaction buffer:
0.1 mM Na3VO4, 2 mM DTT, 1% DMSO. Testing compounds were dissolved in 100% DMSO to specific concentration. The serial dilution was conducted by Integra Viaflo Assist in DMSO. The reaction mixture containing the examined compound and 33P-ATP was incubated at room temperature for 2 h and radioactivity was detected by filter-binding method. Kinase activity data were expressed as the percent remaining kinase activity in test samples compared to vehicle (dimethyl sulfoxide) reactions.

Data set [3] deals with MCF-7 cells. Put plainly: SRB antiproliferative assay, MCF-7. The settings on record: for IC50: MCF-7 breast cancer cells, SRB assay, 48 h, mean ± S.D. of three experiments; for potency relative to Staurosporine, MCF-7: ratio of IC50 values, MCF-7 cells. Format: cell-based, human. How it is done: (§1) 1. Anti-proliferative action toward human breast cell lines […]
(§2) and non-tumorigenic human breast epithelial cell line (MCF-10A) have been obtained from American Type Culture Collection (ATCC). The cells were maintained in Dulbecco's modified Eagle's medium (DMEM) supplemented with 10% heat inactivated fetal calf serum (GIBCO), penicillin (100 U/ml) and streptomycin (100 µg/ml) at 37 °C in humidified atmosphere containing 5% CO2. […]
(§3) grown in a 25 cm2 flask in 5 ml of culture medium.
(§4) The anti-proliferative activity of the tested compounds was measured in vitro using the Sulfo-Rhodamine-B stain (SRB) assay. Briefly, Cells were inoculated in 96-well microtiter plate (5X104 cells/ well) for 24 h before treatment with the tested compounds to allow attachment of cell to the wall of the plate. Tested compounds were dissolved in DMSO at 1 mg/ml immediately before use and diluted to the appropriate volume just before addition to the cell culture. Different concentrations of tested compounds, doxorubicin and sorafenib were added to the cells (three wells were prepared for each […]
(§5) atmosphere of 5% CO2. After 48 h cells were fixed, washed, and stained for 30 min with 0.4% (w/v) SRB dissolved in 1% acetic acid. Unbound dye was removed by four washes with 1% acetic acid, and attached stain was recovered with Tris-EDTA buffer. Color intensity was measured in an ELISA reader. The relation between percent of surviving fraction and drug concentration is plotted to get the survival curve for each cell line. […]

For data set [4], the system named is MDA-MB-231 cells. Put plainly: SRB antiproliferative assay, MDA-MB-231. Format: cell-based, human. Particulars: for IC50: MDA-MB-231 triple-negative breast cancer cells, SRB assay, 48 h, mean ± S.D. of three experiments; for potency relative to Staurosporine, MDA-MB-231 / potency relative to non-brominated counterpart (9g vs 9d, 9h vs 9e), MDA-MB-231: ratio of IC50 values, MDA-MB-231 cells. How it is done: as §1, §2, §3, §4, §5

For `O=C(Cc1c[nH]c2ccccc12)NN=C1C(=O)Nc2ccc(F)cc21` [Compound 7a, N′-(5-Fluoro-2-oxoindolin-3-ylidene)-2-(1H-indol-3-yl)acetohydrazide], the melting point lay within 281 to 283 °C. In data set [1], the “Selectivity Index MCF-10A/MCF-7” value is reported as 9.2 and half-maximal inhibition (IC50) was put at 14.1 µM. Besides, in data set [2], the “% Enzyme Inhibitory Activity” value turned out to be 41% and the inhibition at 10 µM is 44%. Also, the IC50 in data set [3] (Homo sapiens, MCF7, 48 h) stood at 1.53 ± 0.02 µM. Besides, in data set [3], the “potency relative to Staurosporine, MCF-7” value is 4.45 times. This compound also displayed an IC50 in data set [4] (Homo sapiens, MDA-MB-231, 48 h) of 9.04 ± 0.32 µM.

Take `O=C(Cc1c[nH]c2ccccc12)NN=C1C(=O)Nc2ccc(Cl)cc21` [Compound 7b, N′-(5-Chloro-2-oxoindolin-3-ylidene)-2-(1H-indol-3-yl)acetohydrazide]: the melting point lay within 292 to 294 °C. Moreover, in data set [1], the “Selectivity Index MCF-10A/MCF-7” value is recorded as 4.5 and the midpoint of inhibition, the IC50, lay at 39.5 µM. In data set [2], the “% Enzyme Inhibitory Activity” value was 41% and the inhibition at 10 µM was found to be 44%. Further, the IC50 in data set [3] (Homo sapiens, MCF7, 48 h) was 8.87 ± 0.43 µM. This compound also showed an IC50 in data set [4] (Homo sapiens, MDA-MB-231, 48 h) of 2.88 ± 0.08 µM.

`O=C(Cc1c[nH]c2ccccc12)NN=C1C(=O)Nc2ccc(Br)cc21` [Compound 7c, N′-(5-Bromo-2-oxoindolin-3-ylidene)-2-(1H-indol-3-yl)acetohydrazide] yielded a melting point of more than 300 °C. Besides, in data set [3] (Homo sapiens, MCF7, 48 h), the IC50 was 36.2 ± 2.78 µM. Further, it took 36.6 ± 1.81 µM to reach half-maximal inhibition in data set [4] (Homo sapiens, MDA-MB-231, 48 h) (IC50).

`Cc1ccc2c(c1)C(=NNC(=O)Cc1c[nH]c3ccccc13)C(=O)N2` [Compound 7d, 2-(1H-Indol-3-yl)-N′-(5-methyl-2-oxoindolin-3-ylidene)acetohydrazide] showed a melting point of more than 300 °C. Also, in data set [1], the “Selectivity Index MCF-10A/MCF-7” value was 5.0 and the IC50 is 54.9 µM. The inhibition at 10 µM in data set [2] came out at 58%. In data set [3] (Homo sapiens, MCF7, 48 h), this compound displayed a 50% inhibitory concentration (IC50) of 11 ± 0.81 µM. In data set [4] (Homo sapiens, MDA-MB-231, 48 h), this compound yielded an IC50 of 0.34 ± 0.02 µM. Moreover, in data set [4], the “potency relative to Staurosporine, MDA-MB-231” value is recorded as 30.3 times.

With `Cc1cc(C)c2c(c1)C(=NNC(=O)Cc1c[nH]c3ccccc13)C(=O)N2` [Compound 7f, N′-(5,7-Dimethyl-2-oxoindolin-3-ylidene)-2-(1H-indol-3-yl)acetohydrazide], the melting point was in the range of 294 to 296 °C. This compound also came in with an IC50 in data set [3] (Homo sapiens, MCF7, 48 h) of more than 100 µM. This compound also displayed an IC50 in data set [3] of more than 100 µM. The compound also came in with an IC50 in data set [4] (Homo sapiens, MDA-MB-231, 48 h) of 77.3 ± 6.21 µM.

`CCCN1C(=O)C(=NNC(=O)Cc2c[nH]c3ccccc23)c2ccccc21` [Compound 9b, 2-(1H-Indol-3-yl)-N′-(2-oxo-1-propylindolin-3-ylidene)acetohydrazide] displayed a melting point of 207 to 208 °C. In data set [3] (Homo sapiens, MCF7, 48 h), inhibition was half-maximal at 28.2 ± 1.53 µM (IC50). This compound showed an IC50 in data set [4] (Homo sapiens, MDA-MB-231, 48 h) of 51.3 ± 3.59 µM.

As to `O=C(Cc1c[nH]c2ccccc12)NN=C1C(=O)N(Cc2ccccc2)c2ccccc21` [Compound 9d, N′-(1-Benzyl-2-oxoindolin-3-ylidene)-2-(1H-indol-3-yl)acetohydrazide], the melting point is 223 to 225 °C. Also, in data set [1], the “Selectivity Index MCF-10A/MCF-7” value was 12.7 and 19.1 µM corresponded to half-maximal inhibition (IC50). The compound further showed an IC50 in data set [3] (Homo sapiens, MCF7, 48 h) of 1.51 ± 0.03 µM. Moreover, the “potency relative to Staurosporine, MCF-7” value in data set [3] is 4.5 times. In addition, in data set [4] (Homo sapiens, MDA-MB-231, 48 h), half-maximal inhibition (IC50) was put at 4.14 ± 0.19 µM. Besides, in data set [4], the “potency relative to Staurosporine, MDA-MB-231” value came to 2.5 times.

For `O=C(Cc1c[nH]c2ccccc12)NN=C1C(=O)N(Cc2ccc(F)cc2)c2ccccc21` [Compound 9e, N′-(1-(4-Fluorobenzyl)-2-oxoindolin-3-ylidene)-2-(1H-indol-3-yl)acetohydrazide], the melting point lay within 227 to 229 °C. Also, in data set [1], the “Selectivity Index MCF-10A/MCF-7” value was 4.7 and the midpoint of inhibition, the IC50, lay at 48.4 µM. Further, the IC50 in data set [3] (Homo sapiens, MCF7, 48 h) came to 10.4 ± 0.81 µM. In data set [4] (Homo sapiens, MDA-MB-231, 48 h), this compound had an IC50 of 17.7 ± 0.55 µM.

Take `N#Cc1ccc(CN2C(=O)C(=NNC(=O)Cc3c[nH]c4ccccc34)c3ccccc32)cc1` [Compound 9f, N′-(1-(4-Cyanobenzyl)-2-oxoindolin-3-ylidene)-2-(1H-indol-3-yl)acetohydrazide]: the melting point fell in the range of 233 to 234 °C. For the same compound, in data set [1], the “Selectivity Index MCF-10A/MCF-7” value was 4.8 and the IC50 was 42 µM. The compound also displayed an IC50 in data set [3] (Homo sapiens, MCF7, 48 h) of 8.72 ± 0.39 µM. This compound showed an IC50 in data set [4] (Homo sapiens, MDA-MB-231, 48 h) of 25.4 ± 1.56 µM.

In the case of `O=C(Cc1c[nH]c2ccccc12)NN=C1C(=O)N(Cc2ccccc2)c2ccc(Br)cc21` [Compound 9g, N′-(1-Benzyl-5-bromo-2-oxoindolin-3-ylidene)-2-(1H-indol-3-yl)acetohydrazide], the melting point lay within 210 to 211 °C. In addition, in data set [1], the “Selectivity Index MCF-10A/MCF-7” value was 6.2 and the 50% inhibitory concentration (IC50) amounted to 17.2 µM. Moreover, half-maximal inhibition in data set [3] (Homo sapiens, MCF7, 48 h) (IC50) required 2.76 ± 0.14 µM. Moreover, the IC50 in data set [4] (Homo sapiens, MDA-MB-231, 48 h) came to 2.85 ± 0.07 µM. The “potency relative to non-brominated counterpart (9g vs 9d, 9h vs 9e), MDA-MB-231” value in data set [4] was 1.5 times.

In turn, `O=C(Cc1c[nH]c2ccccc12)NN=C1C(=O)N(Cc2ccc(F)cc2)c2ccc(Br)cc21` [Compound 9h, N′-(5-Bromo-1-(4-fluorobenzyl)-2-oxoindolin-3-ylidene)-2-(1H-indol-3-yl)acetohydrazide] registered a melting point of 183 to 185 °C. For the same compound, in data set [1], the “Selectivity Index MCF-10A/MCF-7” value is listed as 1.2 and 26.1 µM corresponded to half-maximal inhibition (IC50). The compound also displayed an IC50 in data set [3] (Homo sapiens, MCF7, 48 h) of 20.89 ± 0.04 µM. In addition, the IC50 in data set [4] (Homo sapiens, MDA-MB-231, 48 h) was 2.29 ± 0.09 µM. Moreover, in data set [4], the “potency relative to non-brominated counterpart (9g vs 9d, 9h vs 9e), MDA-MB-231” value is on record as 7.7 times.

Consider `O=C(Cc1c[nH]c2ccccc12)NN=C1CCCc2ccccc21` [Compound 11, N′-(3,4-Dihydronaphthalen-1(2H)-ylidene)-2-(1H-indol-3-yl)acetohydrazide], for which the melting point lay in the range of 244 to 245 °C. Also, half-maximal inhibition in data set [3] (Homo sapiens, MCF7, 48 h) (IC50) was put at 84.7 ± 4.02 µM. In data set [4] (Homo sapiens, MDA-MB-231, 48 h), this compound displayed an IC50 of more than 100 µM. The same compound had an IC50 in data set [4] of more than 100 µM.

In turn, `CN[C@@H]1C[C@H]2O[C@@](C)([C@@H]1OC)n1c3ccccc3c3c4c(c5c6ccccc6n2c5c31)C(=O)NC4` [Staurosporine, reference compound] came in with an IC50 in data set [3] (Homo sapiens, MCF7, 48 h) of 6.81 ± 0.22 µM.

“N′-(1-(sec-Butyl)-2-oxoindolin-3-ylidene)-2-(1H-indol-3-yl)acetohydrazide [Compound 9c]”: the results for the IC50 in data set [3] and in data set [4] were 47.1 ± 3.65 µM and more than 100 µM, respectively.

By melting point is commonly meant the temperature of the solid-liquid transition. Usually IC50 stands for the concentration needed to halve the response being measured. A high value points to weaker potency in that assay.
